The values that follow come from patent US20240239861A1, “GLUCAGON-RECEPTOR SELECTIVE POLYPEPTIDES AND METHODS OF USE THEREOF” (i2O Therapeutics, Inc., priority 2016, published 2024).

*1 amine or outer side, *2 acyl side, *3 side chain or, on linkers, in order; H or OH if unused. Where a SMILES comes first, the peptide text is derived from it. Side-chain parts run from the residue outwards. [ ]: non-standard residue; d: D form. The star is where a group is joined. C18 diacid = O=C(O)CCCCCCCCCCCCCCCCC(=O)*; γGlu = O=C(O)[C@H](CCC(=O)[*:2])N[*:1]; Palmitoyl = CCCCCCCCCCCCCCCC(=O)*; AEEA = NCCOCCOCC(=O)O; Aib = CC(C)(N)C(=O)O

One test addresses human GCGR (Homo sapiens, UniProt P47871). Put plainly: Peptide-receptor mediated cAMP accumulation (LANCE Ultra cAMP) in CHO-K1 cells transfected with human GCGR. Type of test: cell-based. The note with it: read-out: GluR pEC50 (converted). For orientation: Cyclic AMP is a second messenger, typically raised through Gs and lowered through Gi signalling.
In another test the target is human GLP-1R (Homo sapiens, UniProt P43220). Put plainly: Peptide-receptor mediated cAMP accumulation (LANCE Ultra cAMP) in CHO-K1 cells transfected with human GLP-1R. The conditions noted are these: Table 7; GLP-1R; read-out: GLP-1R pEC50 (converted). Type of test: cell-based.
Sequence of human GLP-1R (P43220 24-463): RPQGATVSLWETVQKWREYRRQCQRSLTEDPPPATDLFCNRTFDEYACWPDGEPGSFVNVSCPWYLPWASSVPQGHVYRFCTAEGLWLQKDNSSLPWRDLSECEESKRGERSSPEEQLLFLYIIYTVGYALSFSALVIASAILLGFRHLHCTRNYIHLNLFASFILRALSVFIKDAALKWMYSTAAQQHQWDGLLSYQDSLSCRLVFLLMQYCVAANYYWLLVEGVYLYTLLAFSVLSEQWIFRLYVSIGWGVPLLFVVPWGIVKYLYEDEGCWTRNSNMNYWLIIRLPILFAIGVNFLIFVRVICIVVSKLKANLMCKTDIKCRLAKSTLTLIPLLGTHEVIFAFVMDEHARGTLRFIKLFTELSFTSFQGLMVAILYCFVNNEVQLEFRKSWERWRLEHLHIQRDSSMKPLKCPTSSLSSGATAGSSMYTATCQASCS

Sequence of human GCGR (P47871 26-477): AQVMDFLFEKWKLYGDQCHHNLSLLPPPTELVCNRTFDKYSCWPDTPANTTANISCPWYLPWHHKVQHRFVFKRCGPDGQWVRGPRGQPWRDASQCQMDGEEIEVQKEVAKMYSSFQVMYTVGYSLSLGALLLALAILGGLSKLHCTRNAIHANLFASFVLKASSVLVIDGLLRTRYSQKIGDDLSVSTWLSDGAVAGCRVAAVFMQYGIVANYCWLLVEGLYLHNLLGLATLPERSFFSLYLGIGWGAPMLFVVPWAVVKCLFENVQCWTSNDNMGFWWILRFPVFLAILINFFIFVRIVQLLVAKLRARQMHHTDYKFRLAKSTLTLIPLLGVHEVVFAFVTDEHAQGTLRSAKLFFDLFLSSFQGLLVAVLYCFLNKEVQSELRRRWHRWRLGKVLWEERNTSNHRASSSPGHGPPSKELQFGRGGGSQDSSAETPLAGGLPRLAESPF

As for `CC(C)C[C@H](NC(=O)[C@H](Cc1ccc(O)cc1)NC(=O)[C@H](CCCCN)NC(=O)[C@H](CO)NC(=O)[C@H](Cc1ccc(O)cc1)NC(=O)[C@H](CC(=O)O)NC(=O)[C@H](CO)NC(=O)[C@@H](NC(=O)[C@H](Cc1ccccc1)NC(=O)[C@@H](NC(=O)CNC(=O)[C@H](Cc1c[nH]cn1)NC(=O)[C@H](CO)NC(=O)[C@@H](N)Cc1ccc(O)cc1)[C@@H](C)O)[C@@H](C)O)C(=O)N[C@@H](CC(=O)O)C(=O)NC(C)(C)C(=O)N[C@@H](CCCCN)C(=O)N[C@@H](Cc1ccc(O)cc1)C(=O)N[C@@H](C)C(=O)N[C@@H](CCC(N)=O)C(=O)N[C@@H](CCC(=O)O)C(=O)N[C@@H](Cc1ccccc1)C(=O)N[C@H](C(=O)NC(C)(C)C(=O)N[C@@H](Cc1c[nH]c2ccccc12)C(=O)N[C@@H](CC(C)C)C(=O)N[C@@H](CCC(=O)O)C(=O)N[C@@H](CC(=O)O)C(=O)N[C@@H](CCC(=O)O)C(=O)N1CCC[C@H]1C(=O)N[C@@H](CO)C(=O)N[C@@H](CO)C(=O)N[C@@H](CCCCNC(=O)COCCOCCNC(=O)COCCOCCNC(=O)CC[C@H](NC(=O)CCCCCCCCCCCCCCCCC(=O)O)C(=O)O)C(=O)N[C@@H](C)C(=O)N1CCC[C@H]1C(=O)N1CCC[C@H]1C(=O)N1CCC[C@H]1C(=O)N[C@@H](CO)C(=O)O)C(C)C` [Compound B5], the EC50 at human GCGR was 0.251 nM; on human GLP-1R, more than 1000 nM.
Taken in the same sequence, the figures for `CC(C)C[C@H](NC(=O)[C@H](Cc1c[nH]c2ccccc12)NC(=O)[C@H](CCCCNC(=O)COCCOCCNC(=O)COCCOCCNC(=O)CC[C@H](NC(=O)CCCCCCCCCCCCCCCCC(=O)O)C(=O)O)NC(=O)[C@@H](NC(=O)[C@H](Cc1ccccc1)NC(=O)[C@H](CCC(=O)O)NC(=O)[C@H](CCC(N)=O)NC(=O)[C@H](C)NC(=O)[C@H](Cc1ccc(O)cc1)NC(=O)[C@H](CCCCN)NC(=O)C(C)(C)NC(=O)[C@H](CC(=O)O)NC(=O)[C@H](CC(C)C)NC(=O)[C@H](Cc1ccc(O)cc1)NC(=O)[C@H](CCCCN)NC(=O)[C@H](CO)NC(=O)[C@H](Cc1ccc(O)cc1)NC(=O)[C@H](CC(=O)O)NC(=O)[C@H](CO)NC(=O)[C@@H](NC(=O)[C@H](Cc1ccccc1)NC(=O)[C@@H](NC(=O)CNC(=O)[C@H](Cc1c[nH]cn1)NC(=O)[C@H](CO)NC(=O)[C@@H](N)Cc1ccc(O)cc1)[C@@H](C)O)[C@@H](C)O)C(C)C)C(=O)N[C@@H](CCC(=O)O)C(=O)N[C@@H](CC(=O)O)C(=O)N[C@@H](CCC(=O)O)C(=O)N1CCC[C@H]1C(=O)N[C@@H](CO)C(=O)N[C@@H](CO)C(=O)NCC(=O)N[C@@H](C)C(=O)N1CCC[C@H]1C(=O)N1CCC[C@H]1C(=O)N1CCC[C@H]1C(=O)N[C@@H](CO)C(=O)O` [Compound B6] were 0.0794 nM and more than 1000 nM.
As to `CC(C)C[C@H](NC(=O)[C@H](Cc1ccc(O)cc1)NC(=O)[C@H](CCCCN)NC(=O)[C@H](CO)NC(=O)[C@H](Cc1ccc(O)cc1)NC(=O)[C@H](CC(=O)O)NC(=O)[C@H](CO)NC(=O)[C@@H](NC(=O)[C@H](Cc1ccccc1)NC(=O)[C@@H](NC(=O)CNC(=O)[C@H](Cc1c[nH]cn1)NC(=O)[C@H](CO)NC(=O)[C@@H](N)Cc1ccc(O)cc1)[C@@H](C)O)[C@@H](C)O)C(=O)N[C@@H](CC(=O)O)C(=O)N[C@@H](CCCCNC(=O)COCCOCCNC(=O)COCCOCCNC(=O)CC[C@H](NC(=O)CCCCCCCCCCCCCCCCC(=O)O)C(=O)O)C(=O)N[C@@H](CCCCN)C(=O)N[C@@H](Cc1ccc(O)cc1)C(=O)N[C@@H](C)C(=O)N[C@@H](CCC(N)=O)C(=O)N[C@@H](CCC(=O)O)C(=O)N[C@@H](Cc1ccccc1)C(=O)N[C@H](C(=O)NC(C)(C)C(=O)N[C@@H](Cc1c[nH]c2ccccc12)C(=O)N[C@@H](CC(C)C)C(=O)N[C@@H](CCC(=O)O)C(=O)N[C@@H](CC(=O)O)C(=O)N[C@@H](CCC(=O)O)C(=O)N1CCC[C@H]1C(=O)N[C@@H](CO)C(=O)N[C@@H](CO)C(=O)NCC(=O)N[C@@H](C)C(=O)N1CCC[C@H]1C(=O)N1CCC[C@H]1C(=O)N1CCC[C@H]1C(=O)N[C@@H](CO)C(=O)O)C(C)C` [Compound B7], the EC50 at human GCGR was 2.51 nM; at human GLP-1R it was more than 1000 nM.
For `CC(C)C[C@H](NC(=O)[C@H](Cc1ccc(O)cc1)NC(=O)[C@H](CCCCN)NC(=O)[C@H](CO)NC(=O)[C@H](CCCCNC(=O)COCCOCCNC(=O)COCCOCCNC(=O)CC[C@H](NC(=O)CCCCCCCCCCCCCCCCC(=O)O)C(=O)O)NC(=O)[C@H](CC(=O)O)NC(=O)[C@H](CO)NC(=O)[C@@H](NC(=O)[C@H](Cc1ccccc1)NC(=O)[C@@H](NC(=O)CNC(=O)[C@H](Cc1c[nH]cn1)NC(=O)[C@H](CO)NC(=O)[C@@H](N)Cc1ccc(O)cc1)[C@@H](C)O)[C@@H](C)O)C(=O)N[C@@H](CC(=O)O)C(=O)NC(C)(C)C(=O)N[C@@H](CCCCN)C(=O)N[C@@H](Cc1ccc(O)cc1)C(=O)N[C@@H](C)C(=O)N[C@@H](CCC(N)=O)C(=O)N[C@@H](CCC(=O)O)C(=O)N[C@@H](Cc1ccccc1)C(=O)N[C@H](C(=O)NC(C)(C)C(=O)N[C@@H](Cc1c[nH]c2ccccc12)C(=O)N[C@@H](CC(C)C)C(=O)N[C@@H](CCC(=O)O)C(=O)N[C@@H](CC(=O)O)C(=O)N[C@@H](CCC(=O)O)C(=O)N1CCC[C@H]1C(=O)N[C@@H](CO)C(=O)N[C@@H](CO)C(=O)NCC(=O)N[C@@H](C)C(=O)N1CCC[C@H]1C(=O)N1CCC[C@H]1C(=O)N1CCC[C@H]1C(=O)N[C@@H](CO)C(=O)O)C(C)C` [Compound B8] (H-YSHGTFTSDK([AEEA-AEEA-γGlu-C18 diacid])SKYLD[Aib]KYAQEFV[Aib]WLEDEPSSGAPPPS-OH), in that order: 0.0251 nM and more than 1000 nM.
Taken in the same sequence, the figures for `CCCCCCCCCCCCCCCC(=O)N[C@@H](CCC(=O)NCCCC[C@H](NC(=O)[C@@H](NC(=O)[C@H](Cc1ccccc1)NC(=O)[C@H](CCC(=O)O)NC(=O)[C@H](CCC(N)=O)NC(=O)[C@H](C)NC(=O)[C@H](CO)NC(=O)[C@H](CCCCN)NC(=O)C(C)(C)NC(=O)[C@H](CC(=O)O)NC(=O)[C@H](CC(C)C)NC(=O)[C@H](Cc1ccc(O)cc1)NC(=O)[C@H](CCCCN)NC(=O)[C@H](CO)NC(=O)[C@H](Cc1ccc(O)cc1)NC(=O)[C@H](CC(=O)O)NC(=O)[C@H](CO)NC(=O)[C@@H](NC(=O)[C@H](Cc1ccccc1)NC(=O)[C@@H](NC(=O)CNC(=O)[C@H](Cc1c[nH]cn1)NC(=O)[C@H](CO)NC(=O)[C@@H](N)Cc1ccc(O)cc1)[C@@H](C)O)[C@@H](C)O)C(C)C)C(=O)N[C@@H](Cc1c[nH]c2ccccc12)C(=O)N[C@@H](CC(C)C)C(=O)N[C@@H](CCC(=O)O)C(=O)N[C@@H](CC(=O)O)C(=O)N[C@@H](CCC(=O)O)C(=O)N1CCC[C@H]1C(=O)N[C@@H](CO)C(=O)N[C@@H](CO)C(=O)NCC(=O)N[C@@H](C)C(=O)N1CCC[C@H]1C(=O)N1CCC[C@H]1C(=O)N1CCC[C@H]1C(=O)N[C@@H](CO)C(=O)O)C(=O)O` [Compound B10] were 0.126 nM and more than 1000 nM.
As to `CCCCCCCCCCCCCCCC(=O)N[C@@H](CCC(=O)NCCCC[C@H](NC(=O)[C@H](CC(=O)O)NC(=O)[C@H](CC(C)C)NC(=O)[C@H](Cc1ccc(O)cc1)NC(=O)[C@H](CCCCN)NC(=O)[C@H](CO)NC(=O)[C@H](Cc1ccc(O)cc1)NC(=O)[C@H](CC(=O)O)NC(=O)[C@H](CO)NC(=O)[C@@H](NC(=O)[C@H](Cc1ccccc1)NC(=O)[C@@H](NC(=O)CNC(=O)[C@H](Cc1c[nH]cn1)NC(=O)[C@H](CO)NC(=O)[C@@H](N)Cc1ccc(O)cc1)[C@@H](C)O)[C@@H](C)O)C(=O)N[C@@H](CCCCN)C(=O)N[C@@H](CO)C(=O)N[C@@H](C)C(=O)N[C@@H](CCC(N)=O)C(=O)N[C@@H](CCC(=O)O)C(=O)N[C@@H](Cc1ccccc1)C(=O)N[C@H](C(=O)NC(C)(C)C(=O)N[C@@H](Cc1c[nH]c2ccccc12)C(=O)N[C@@H](CC(C)C)C(=O)N[C@@H](CCC(=O)O)C(=O)N[C@@H](CC(=O)O)C(=O)N[C@@H](CCC(=O)O)C(=O)N1CCC[C@H]1C(=O)N[C@@H](CO)C(=O)N[C@@H](CO)C(=O)NCC(=O)N[C@@H](C)C(=O)N1CCC[C@H]1C(=O)N1CCC[C@H]1C(=O)N1CCC[C@H]1C(=O)N[C@@H](CO)C(=O)O)C(C)C)C(=O)O` [Compound B11], the figures for the EC50 at human GCGR and at human GLP-1R were 0.0501 nM and 501 nM, respectively.
Taken in the same sequence, the figures for `CCCCCCCCCCCCCCCC(=O)N[C@@H](CCC(=O)NCCCC[C@H](NC(=O)[C@H](CC(=O)O)NC(=O)[C@H](CO)NC(=O)[C@@H](NC(=O)[C@H](Cc1ccccc1)NC(=O)[C@@H](NC(=O)CNC(=O)[C@H](Cc1c[nH]cn1)NC(=O)[C@H](CO)NC(=O)[C@@H](N)Cc1ccc(O)cc1)[C@@H](C)O)[C@@H](C)O)C(=O)N[C@@H](CO)C(=O)N[C@@H](CCCCN)C(=O)N[C@@H](Cc1ccc(O)cc1)C(=O)N[C@@H](CC(C)C)C(=O)N[C@@H](CC(=O)O)C(=O)NC(C)(C)C(=O)N[C@@H](CCCCN)C(=O)N[C@@H](CO)C(=O)N[C@@H](C)C(=O)N[C@@H](CCC(N)=O)C(=O)N[C@@H](CCC(=O)O)C(=O)N[C@@H](Cc1ccccc1)C(=O)N[C@H](C(=O)NC(C)(C)C(=O)N[C@@H](Cc1c[nH]c2ccccc12)C(=O)N[C@@H](CC(C)C)C(=O)N[C@@H](CCC(=O)O)C(=O)N[C@@H](CC(=O)O)C(=O)N[C@@H](CCC(=O)O)C(=O)N1CCC[C@H]1C(=O)N[C@@H](CO)C(=O)N[C@@H](CO)C(=O)NCC(=O)N[C@@H](C)C(=O)N1CCC[C@H]1C(=O)N1CCC[C@H]1C(=O)N1CCC[C@H]1C(=O)N[C@@H](CO)C(=O)O)C(C)C)C(=O)O` [Compound B12] (H-YSHGTFTSDK([γGlu-Palmitoyl])SKYLD[Aib]KSAQEFV[Aib]WLEDEPSSGAPPPS-OH) were 0.00316 nM and 63.1 nM.
